In patent US20240398828A1, “HETERO-ATOM CONTAINING COMPOUNDS AND USES THEREOF” (Kumquat Biosciences Inc., priority 2021, published 2024):

How the values were obtained:
[1] = molecular target: T1, PTPN2 (i.e., TC-PTP) (Homo sapiens, UniProt P17706); test: Phosphatase activity assay (DiFMUP substrate), PTPN2; format: biochemical; details: compounds binned ≤1 uM or >1 uM
T1 sequence (P17706 1-415): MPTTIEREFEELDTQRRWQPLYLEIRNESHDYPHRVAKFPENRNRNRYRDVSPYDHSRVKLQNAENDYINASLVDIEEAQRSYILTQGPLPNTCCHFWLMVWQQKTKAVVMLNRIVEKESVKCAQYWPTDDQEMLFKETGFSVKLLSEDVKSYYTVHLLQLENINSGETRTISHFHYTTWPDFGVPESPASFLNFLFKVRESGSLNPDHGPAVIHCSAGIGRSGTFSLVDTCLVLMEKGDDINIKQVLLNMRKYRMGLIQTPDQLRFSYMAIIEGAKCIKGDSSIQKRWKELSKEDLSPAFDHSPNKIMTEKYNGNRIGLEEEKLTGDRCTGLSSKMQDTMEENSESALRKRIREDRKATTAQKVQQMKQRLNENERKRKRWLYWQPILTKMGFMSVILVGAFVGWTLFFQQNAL
Outline: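 RT, HEPES pH 7.5 buffer with DTT/Tween-20. 10-point inhibitor series premixed ~2 min with enzyme (PTPN2 0.025 ng/ul). Start with DiFMUP at enzyme Km (~45 μM for PTPN2). Read DiFMU ex360/em450 continuously 15–30 min; initial rate vs concentration, 4-parameter fit → IC50.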

[2] = molecular target: T2, PTPN1 (i.e., PTP1B) (Homo sapiens, UniProt P18031); test: Phosphatase activity assay (DiFMUP substrate), PTP1B; format: biochemical; details: compounds binned ≤1 uM or >1 uM
T2 sequence (P18031 1-435): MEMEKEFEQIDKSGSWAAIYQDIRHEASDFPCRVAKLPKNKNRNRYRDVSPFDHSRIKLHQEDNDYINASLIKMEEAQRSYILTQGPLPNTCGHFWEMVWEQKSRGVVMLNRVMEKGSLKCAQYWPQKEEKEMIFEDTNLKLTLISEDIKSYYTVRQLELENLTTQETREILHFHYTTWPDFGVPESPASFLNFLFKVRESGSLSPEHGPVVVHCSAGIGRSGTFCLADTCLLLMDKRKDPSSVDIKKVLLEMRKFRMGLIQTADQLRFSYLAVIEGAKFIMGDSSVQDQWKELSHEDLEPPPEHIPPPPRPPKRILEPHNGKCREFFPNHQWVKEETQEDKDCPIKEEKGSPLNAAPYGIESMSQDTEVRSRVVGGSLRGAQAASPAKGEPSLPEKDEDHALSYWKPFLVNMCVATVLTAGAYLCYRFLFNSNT
Outline: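 Enzyme (e.g. PTPN2 0.025 ng/ul) mixed about 2 min with compound at 10 serial concentrations in 50 mM HEPES pH 7.5, 150 mM NaCl, 0.5 mM EDTA, 1 mM DTT, 0.001% Tween-20 at room temperature. DiFMUP added at each enzyme's Km (about 45 μM for PTPN2). DiFMU fluorescence (ex 360/em 450 nm) followed 15-30 min; IC50 from 4-parameter fit of rates.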

Structure (SMILES) | IC50 [1] | IC50 [2]
CCCCC1C=C(c2ccc(O)c(N3CC(=O)NS3(=O)=O)c2F)CN1 (centres unmarked) [Compound 523, 5-(3-(5-butyl-2,5-dihydro-1H-pyrrol-3-yl)-2-fluoro-6-hydroxyphenyl)-1,2,5-thiadiazolidin-3-one 1,1-dioxide] | ≤ 1 µM | ≤ 1 µM
O=C1CN(c2c(O)ccc(-c3cc(CC(F)F)n[nH]3)c2F)S(=O)(=O)N1 [Compound 524, 5-(3-(3-(2,2-difluoroethyl)-1H-pyrazol-5-yl)-2-fluoro-6-hydroxyphenyl)-1,2,5-thiadiazolidin-3-one 1,1-dioxide] | ≤ 1 µM | ≤ 1 µM
O=C1CN(c2c(O)ccc(-c3cnn(CC(F)F)c3)c2F)S(=O)(=O)N1 [Compound 525, 5-(3-(1-(2,2-difluoroethyl)-1H-pyrazol-4-yl)-2-fluoro-6-hydroxyphenyl)-1,2,5-thiadiazolidin-3-one 1,1-dioxide] | ≤ 1 µM | ≤ 1 µM
O=C1CN(c2c(O)ccc(-c3cc(C4(C(F)F)CC4)n[nH]3)c2F)S(=O)(=O)N1 [Compound 526, 5-(3-(3-(1-(difluoromethyl)cyclopropyl)-1H-pyrazol-5-yl)-2-fluoro-6-hydroxyphenyl)-1,2,5-thiadiazolidin-3-one 1,1-dioxide] | ≤ 1 µM | ≤ 1 µM
Cn1cc(-c2ccc(O)c(N3CC(=O)NS3(=O)=O)c2F)nc1O [Compound 527, 5-(2-fluoro-6-hydroxy-3-(2-hydroxy-1-methyl-1H-imidazol-4-yl)phenyl)-1,2,5-thiadiazolidin-3-one 1,1-dioxide] | ≤ 1 µM | ≤ 1 µM
Cn1nc(-c2ccc(O)c(N3CC(=O)NS3(=O)=O)c2F)cc1N [Compound 529, 5-(3-(5-amino-1-methyl-1H-pyrazol-3-yl)-2-fluoro-6-hydroxyphenyl)-1,2,5-thiadiazolidin-3-one 1,1-dioxide] | ≤ 1 µM | ≤ 1 µM
O=C1CN(c2c(O)ccc(-c3cn(CCC(F)F)nc3F)c2F)S(=O)(=O)N1 [Compound 530, 5-(3-(1-(3,3-difluoropropyl)-3-fluoro-1H-pyrazol-4-yl)-2-fluoro-6-hydroxyphenyl)-1,2,5-thiadiazolidin-3-one 1,1-dioxide] | ≤ 1 µM | ≤ 1 µM
CC(C)CC1C=C(c2ccc(O)c(N3CC(=O)NS3(=O)=O)c2F)CN1 (centres unmarked) [Compound 531, 5-(2-fluoro-6-hydroxy-3-(5-isobutyl-2,5-dihydro-1H-pyrrol-3-yl)phenyl)-1,2,5-thiadiazolidin-3-one 1,1-dioxide] | ≤ 1 µM | ≤ 1 µM
CN(C)C(=O)n1cc(-c2ccc(O)c(N3CC(=O)NS3(=O)=O)c2F)cn1 [Compound 532, 4-(3-(1,1-dioxido-4-oxo-1,2,5-thiadiazolidin-2-yl)-2-fluoro-4-hydroxyphenyl)-N,N-dimethyl-1H-pyrazole-1-carboxamide] | ≤ 1 µM | ≤ 1 µM
NC(=O)C1CC1c1cc(-c2ccc(O)c(N3CC(=O)NS3(=O)=O)c2F)[nH]n1 (centres unmarked) [Compound 533, 2-(5-(3-(1,1-dioxido-4-oxo-1,2,5-thiadiazolidin-2-yl)-2-fluoro-4-hydroxyphenyl)-1H-pyrazol-3-yl)cyclopropane-1-carboxamide] | ≤ 1 µM | ≤ 1 µM
O=C1CN(c2c(O)ccc(C3=CCN(CCC(F)F)C3)c2F)S(=O)(=O)N1 [Compound 534, 5-(3-(1-(3,3-difluoropropyl)-2,5-dihydro-1H-pyrrol-3-yl)-2-fluoro-6-hydroxyphenyl)-1,2,5-thiadiazolidin-3-one 1,1-dioxide] | ≤ 1 µM | ≤ 1 µM
N#CNC(=N)N1CCC=C(c2ccc(O)c(N3CC(=O)NS3(=O)=O)c2F)C1 [Compound 535, N-cyano-5-(3-(1,1-dioxido-4-oxo-1,2,5-thiadiazolidin-2-yl)-2-fluoro-4-hydroxyphenyl)-3,6-dihydropyridine-1(2H)-carboximidamide] | ≤ 1 µM | ≤ 1 µM
COC(=O)n1nc(-c2ccc(O)c(N3CC(=O)NS3(=O)=O)c2F)cc1C1CC1 [Compound 536, methyl 5-cyclopropyl-3-(3-(1,1-dioxido-4-oxo-1,2,5-thiadiazolidin-2-yl)-2-fluoro-4-hydroxyphenyl)-1H-pyrazole-1-carboxylate] | ≤ 1 µM | ≤ 1 µM
O=C1CN(c2c(O)ccc(-c3cnn(C(=O)C4CC4)c3)c2F)S(=O)(=O)N1 [Compound 537, 5-(3-(1-(cyclopropanecarbonyl)-1H-pyrazol-4-yl)-2-fluoro-6-hydroxyphenyl)-1,2,5-thiadiazolidin-3-one 1,1-dioxide] | ≤ 1 µM | ≤ 1 µM
O=C1CN(c2c(O)ccc(-c3cc(C4CC4(F)F)nn3C(F)F)c2F)S(=O)(=O)N1 (centres unmarked) [Compound 538, 5-(3-(3-(2,2-difluorocyclopropyl)-1-(difluoromethyl)-1H-pyrazol-5-yl)-2-fluoro-6-hydroxyphenyl)-1,2,5-thiadiazolidin-3-one 1,1-dioxide] | ≤ 1 µM | ≤ 1 µM
O=C1CN(c2c(O)ccc(C3=CC(CCC4CC4)NC3)c2F)S(=O)(=O)N1 (centres unmarked) [Compound 539, 5-(3-(5-(2-cyclopropylethyl)-2,5-dihydro-1H-pyrrol-3-yl)-2-fluoro-6-hydroxyphenyl)-1,2,5-thiadiazolidin-3-one 1,1-dioxide] | ≤ 1 µM | ≤ 1 µM
Cn1nc(-c2ccc(O)c(N3CC(=O)NS3(=O)=O)c2F)nc1C1CC1(F)F (centres unmarked) [Compound 540, 5-(3-(5-(2,2-difluorocyclopropyl)-1-methyl-1H-1,2,4-triazol-3-yl)-2-fluoro-6-hydroxyphenyl)-1,2,5-thiadiazolidin-3-one 1,1-dioxide] | ≤ 1 µM | ≤ 1 µM
CC(C)CCC1C=C(c2ccc(O)c(N3CC(=O)NS3(=O)=O)c2F)CN1 (centres unmarked) [Compound 541, 5-(2-fluoro-6-hydroxy-3-(5-isopentyl-2,5-dihydro-1H-pyrrol-3-yl)phenyl)-1,2,5-thiadiazolidin-3-one 1,1-dioxide] | ≤ 1 µM | ≤ 1 µM
O=C1CN(c2c(O)ccc(-c3cnn(C4(C(F)F)CC4)c3)c2F)S(=O)(=O)N1 [Compound 542, 5-(3-(1-(1-(difluoromethyl)cyclopropyl)-1H-pyrazol-4-yl)-2-fluoro-6-hydroxyphenyl)-1,2,5-thiadiazolidin-3-one 1,1-dioxide] | ≤ 1 µM | ≤ 1 µM
CNC(=O)n1nc(-c2ccc(O)c(N3CC(=O)NS3(=O)=O)c2F)cc1C1CC1 [Compound 543, 5-cyclopropyl-3-(3-(1,1-dioxido-4-oxo-1,2,5-thiadiazolidin-2-yl)-2-fluoro-4-hydroxyphenyl)-N-methyl-1H-pyrazole-1-carboxamide] | ≤ 1 µM | ≤ 1 µM
CC(C)CCN1CC=C(c2ccc(O)c(N3CC(=O)NS3(=O)=O)c2F)C1 [Compound 544, 5-(2-fluoro-6-hydroxy-3-(1-isopentyl-2,5-dihydro-1H-pyrrol-3-yl)phenyl)-1,2,5-thiadiazolidin-3-one 1,1-dioxide] | ≤ 1 µM | ≤ 1 µM
COC(=O)n1nc(C2CC2)cc1-c1ccc(O)c(N2CC(=O)NS2(=O)=O)c1F [Compound 545, methyl 3-cyclopropyl-5-(3-(1,1-dioxido-4-oxo-1,2,5-thiadiazolidin-2-yl)-2-fluoro-4-hydroxyphenyl)-1H-pyrazole-1-carboxylate] | ≤ 1 µM | ≤ 1 µM
